# Laboratory results: patent US20240279202A1 (NURIX THERAPEUTICS, INC., priority 2021, published 2024)
# Target: T1, ITK (Homo sapiens, UniProt Q08881)
# T1 sequence (Q08881 1-620): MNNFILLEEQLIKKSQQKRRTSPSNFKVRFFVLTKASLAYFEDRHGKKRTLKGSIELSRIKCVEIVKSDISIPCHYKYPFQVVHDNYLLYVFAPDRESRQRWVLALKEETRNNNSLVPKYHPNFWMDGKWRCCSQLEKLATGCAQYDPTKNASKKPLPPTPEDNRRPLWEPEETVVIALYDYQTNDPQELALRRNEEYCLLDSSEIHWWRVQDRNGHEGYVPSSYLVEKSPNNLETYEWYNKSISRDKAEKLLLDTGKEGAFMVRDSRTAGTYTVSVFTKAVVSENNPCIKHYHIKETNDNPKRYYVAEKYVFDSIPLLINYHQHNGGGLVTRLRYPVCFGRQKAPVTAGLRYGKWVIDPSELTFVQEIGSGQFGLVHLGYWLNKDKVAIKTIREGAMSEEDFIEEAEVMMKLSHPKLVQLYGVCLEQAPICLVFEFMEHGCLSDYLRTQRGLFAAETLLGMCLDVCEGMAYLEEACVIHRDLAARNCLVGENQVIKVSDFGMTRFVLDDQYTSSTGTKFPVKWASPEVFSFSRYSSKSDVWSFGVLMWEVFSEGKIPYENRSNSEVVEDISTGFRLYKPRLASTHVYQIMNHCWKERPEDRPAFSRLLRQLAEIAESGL
# Experiment: ITK degradation HiBiT assay
# Type: cell-based
# Parameters: expressed in transfected cells; host or cells: Molt4 (ATCC CRL-1552), monoclonal clone 1C10, engineered to carry the HiBiT tag
# Settings: 4 hrs; for DC50: C-terminal HiBiT-tagged Molt4 cells; for Dmax: MOLT-4, C-terminal HiBiT-tagged Molt4 cells
# Experimental: Itk Degradation Hibit Assay
# Compounds provided herein were assayed in vitro with ITK HiBit cell lines. Compound dilution series (11-point, 5 fold dilutions in DMSO, columns 2-12 with replicate in rows A/B, C/D, E/F, G,H at 2000× the final required concentrations were prepared in 96 well plates (Falcon, cat. no. 353077). Column 1, rows A-H were control DMSO. The 2000× solutions ranged from 2 mM to 1.024 nM (final assay concentration range 1 μM to […]). The 2000× solutions were added to cells in […], for a final DMSO concentration of 0.5% and final assay compound concentration of 1×. For the cells, C-terminal HiBiT-tagged Molt4 cells (ATCC CRL-1552, monoclonal cell line clone 1C10) were plated at 1×10^6 cells/mL, 100 μL/well ([…]) in complete RPMI (10% FBS, 1% L-glutamine). The cells were incubated with compound 10 and compound 17 for 4 hrs at […]/6% CO2.
# Following incubation, 100 μL of complete Nano-Glo HiBiT Lytic Detection Reagent (Nano-Glo HiBiT Lytic Buffer with 1:50 Nano-Glo HiBiT Lytic Substrate and 1:100 LgBiT Protein; Promega cat. no. N3040) was added. Cells were further incubated for 10 min at room temperature (RT). Luminescence units (LU) were read on an EnVision plate reader (Perkin Elmer, 0.1 sec per well). Percent ITK remaining per sample was calculated as follows: […]
# Using Graphpad Prism, % ITK remaining values were plotted as a function of compound concentration. To determine DC50 and Dmax values, resulting curves were fit to the Prism curve-fitting equation “log(inhibitor) vs response—Variable slope (four parameters)” (reported best fit value IC50 used as DC50). ITK was measured with antibody-based MSD (Meso-Scale Discovery) assays shown below.
DC50 [nM],Dmax [%],Structure (SMILES)
0.05,81,"CC1(C)CCc2c(-c3cc4ccc(C(=O)N5CCC(CN6CCN(c7ccc(C8CCC(=O)NC8=O)cn7)CC6)CC5)cc4[nH]3)n[nH]c2C1 (stereo not drawn) [Compound 59, 3-(6-(4-((1-(2-(6,6-dimethyl-4,5,6,7-tetrahydro-1H-indazol-3-yl)-1H-indole-6-carbonyl)piperidin-4-yl)methyl)piperazin-1-yl)pyridin-3-yl)piperidine-2,6-dione]"
,80,C[C@H]1CN(C(=O)c2ccc3cc(-c4n[nH]c5c4CCC(C)(C)C5)[nH]c3c2)CCN1CC1CCN(c2ccc(C3CCC(=O)NC3=O)cc2)CC1 (mixture of isomers) [Compound 152]
,80,Cn1c(=O)n(C2CCC(=O)NC2=O)c2ccc(N[C@H]3CC[C@H](C(=O)N4CCC(n5cc(NC(=O)c6n[nH]c7c6C[C@@H]6C(F)(F)[C@]6(C)C7)cn5)CC4)CC3)cc21 (mixture of isomers) [Compound 169]
,86,C[C@@]12Cc3[nH]nc(C(=O)Nc4cnn(C5CCN(C(=O)[C@H]6CC[C@H](Cn7ncc8cc(C9CCC(=O)NC9=O)ccc87)CC6)CC5)c4)c3C[C@@H]1C2(F)F (mixture of isomers) [Compound 164]
0.06,87,"CC1(C)CCc2c(-c3cc4cc(F)c(C(=O)N5CCN(CC6CCN(c7ccc(C8CCC(=O)NC8=O)nc7)CC6)CC5)cc4[nH]3)n[nH]c2C1 (stereo not drawn) [Compound 216, 3-{5-[4-({4-[2-(6,6-dimethyl-1,4,5,7-tetrahydroindazol-3-yl)-5-fluoro-1H-indole-6-carbonyl]piperazin-1-yl}methyl)piperidin-1-yl]pyridin-2-yl}piperidine-2,6-dione]"
0.041,85,"C[C@@]12Cc3[nH]nc(C(=O)Nc4cnn(CC5CCN(CC6CCN(c7ccc(C8CCC(=O)NC8=O)cc7)CC6)CC5)c4)c3C[C@@H]1C2(F)F (mixture of isomers) [Compound 119, (4aS,5aR)-N-[1-({1-[(1-{4-[(3RS)-2,6-dioxopiperidin-3-yl]phenyl}piperidin-4-yl)methyl]piperidin-4-yl}methyl)-1H-pyrazol-4-yl]-5,5-difluoro-5a-methyl-1H,4H,4aH,5H,5aH,6H-cyclopropa[f]indazole-3-carboxamide]"
,53,"CN(c1ccc2cc(-c3n[nH]c4c3C[C@@H]3C(F)(F)[C@]3(C)C4)[nH]c2c1)C(=O)[C@H]1C[C@@]2(CCN(c3ccc4c(c3)C(=O)N([C@H]3CCC(=O)NC3=O)C4=O)C2)C1 (racemic) [Compound 71a, (2r,4r)-N-[2-[(4aS,5aR)-5,5-difluoro-5a-methyl-1H,4H,4aH,6H-cyclopropa[f]indazol-3-yl]-1H-indol-6-yl]-6-[2-[(3RS)-2,6-dioxopiperidin-3-yl]-1,3-dioxoisoindol-5-yl]-N-methyl-6-azaspiro[3.4]octane-2-carboxamide]"
2.03,76,"CC1(C)CCc2c(C(=O)Nc3cnn(C4CCN(CC5CCN(c6ccc([C@@H]7CCC(=O)NC7=O)cc6)CC5)CC4)c3)n[nH]c2C1 [Compound 121, N-(1-{1-[(1-{4-[(3S)-2,6-dioxopiperidin-3-yl]phenyl}piperidin-4-yl)methyl]piperidin-4-yl}-1H-pyrazol-4-yl)-6,6-dimethyl-4,5,6,7-tetrahydro-1H-indazole-3-carboxamide]"
1.8,,"C[C@@]12Cc3[nH]nc(C(=O)Nc4cnn(C5CN(C(=O)C6CN(c7ccc(C8CCC(=O)NC8=O)cn7)C6)C5)c4)c3C[C@@H]1C2(F)F (stereo partly drawn) [Compound 55, (4aS,5aR)-N-(1-(1-(1-(5-(2,6-dioxopiperidin-3-yl)pyridin-2-yl)azetidine-3-carbonyl)azetidin-3-yl)-1H-pyrazol-4-yl)-5,5-difluoro-5a-methyl-1,4,4a,5,5a,6-hexahydrocyclopropa[f]indazole-3-carboxamide]"
4.4,81,"CC1(C)CCc2c(-c3cc4cc(F)c(C(=O)N5CCN(CC6CCN(c7ccc(C8CCC(=O)NC8=O)cc7)CC6)CC5)cc4[nH]3)n[nH]c2C1 (stereo not drawn) [Compound 137, 3-(4-(4-((4-(2-(6,6-dimethyl-4,5,6,7-tetrahydro-1H-indazol-3-yl)-5-fluoro-1H-indole-6-carbonyl)piperazin-1-yl)methyl)piperidin-1-yl)phenyl)piperidine-2,6-dione]"
< 0.001,82,"C[C@@H](C(=O)N(C)c1ccc2cc(-c3n[nH]c4c3C[C@@H]3C(F)(F)[C@]3(C)C4)[nH]c2c1)N1CCN(CC2CCN(c3cc(C4CCC(=O)NC4=O)ccn3)CC2)CC1 (stereo partly drawn) [Compound 23, (2S)—N-(2-((4aS,5aR)-5,5-difluoro-5a-methyl-1,4,4a,5,5a,6-hexahydrocyclopropa[f]indazol-3-yl)-1H-indol-6-yl)-2-(4-((1-(4-(2,6-dioxopiperidin-3-yl)pyridin-2-yl)piperidin-4-yl)methyl)piperazin-1-yl)-N-methylpropanamide]"
,88,C[C@@H]1CN(C(=O)c2ccc3cc(-c4n[nH]c5c4C[C@@H]4C(F)(F)[C@]4(C)C5)[nH]c3c2)C[C@H](C)N1CC1CCN(c2ccc(C3CCC(=O)NC3=O)cc2)CC1 (stereo partly drawn) [Compound 158]
3.3,94,C[C@@]12Cc3[nH]nc(C(=O)Nc4cnn([C@H](c5ccccc5)C5CN(C(=O)N6CCC7(CCN(c8ccc9c(c8)C(=O)N(C8CCC(=O)NC8=O)C9=O)CC7)C6)C5)c4)c3C[C@@H]1C2(F)F (stereo partly drawn) [Compound 53]
,88,C[C@@]12Cc3[nH]nc(C(=O)Nc4cnn(C5CCC(C(=O)N6CCN(c7ccc(C8CCC(=O)NC8=O)cc7)CC6)CC5)c4)c3C[C@@H]1C2(F)F (mixture of isomers) [Compound 179]
0.6,87,"C[C@@]12Cc3[nH]nc(-c4nc5ccc(C(=O)N6CCN(CC7CCN(c8ccc(C9CCC(=O)NC9=O)cc8)CC7)CC6)cc5[nH]4)c3C[C@@H]1C2(F)F (mixture of isomers) [Compound 227, (3RS)-3-(4-{4-[(4-{2-[(4aS,5aR)-5,5-difluoro-5a-methyl-1H,4H,4aH,6H-cyclopropa [f]indazol-3-yl]-3H-1,3-benzodiazole-5-carbonyl}piperazin-1-yl)methyl]piperidin-1-yl}phenyl)piperidine-2,6-dione]"
,70,CC1(C)CCc2c(-c3cc4ccc(C(=O)N5CCN(CC6CCN(c7ncc(C8CCC(=O)NC8=O)cn7)CC6)CC5)cc4[nH]3)n[nH]c2C1 (stereo not drawn) [Compound 187]
3.7,90,"C[C@@]12Cc3[nH]nc(C(=O)Nc4cnn(C5CCC(CN6CCC(Oc7ccc(C8CCC(=O)NC8=O)cn7)CC6)CC5)c4)c3C[C@@H]1C2(F)F (stereo partly drawn) [Compound 124, (4aS,5aR)-5,5-difluoro-5a-methyl-N-{1-[(1rs,4rs)-4-{[4-({5-[(3R)-2,6-dioxopiperidin-3-yl]pyridin-2-yl}oxy)piperidin-1-yl]methyl}cyclohexyl]-1H-pyrazol-4-yl}-1H,4H,4aH,5H,5aH,6H-cyclopropa[f]indazole-3-carboxamide]"
2.6,88,"C[C@@]12Cc3[nH]nc(C(=O)Nc4cnn(C5CCN(CC6(F)CCN(c7ccc(C8CCC(=O)NC8=O)cc7)CC6)CC5)c4)c3C[C@@H]1C2(F)F (stereo partly drawn) [Compound 97, (4aS,5aR)-N-(1-(1-((1-(4-(2,6-dioxopiperidin-3-yl)phenyl)-4-fluoropiperidin-4-yl)methyl)piperidin-4-yl)-1H-pyrazol-4-yl)-5,5-difluoro-5a-methyl-1,4,4a,5,5a,6-hexahydrocyclopropa[f]indazole-3-carboxamide]"
0.391,84,"C[C@@]12Cc3[nH]nc(C(=O)Nc4cnn(C5CCN(CC6CCN(c7ncc(C8CCC(=O)NC8=O)cn7)CC6)CC5)c4)c3C[C@@H]1C2(F)F (mixture of isomers) [Compound 115, (4aS,5aR)-N-(1-{1-[(1-{5-[(3RS)-2,6-dioxopiperidin-3-yl]pyrimidin-2-yl}piperidin-4-yl)methyl]piperidin-4-yl}-1H-pyrazol-4-yl)-5,5-difluoro-5a-methyl-1H,4H,4aH,5H,5aH,6H-cyclopropa[f]indazole-3-carboxamide]"
